Measurements reported in patent US11919906B2, “Crystal form of ACP-196 and method of treatment thereof” (Hangzhou SoliPharma Co., Ltd., priority 2016, dated 2024).

Key:
[1] = Isothermal sorption (dynamic vapor sorption), hygroscopicity; type: physicochemical; details: between 30 to 80% RH
Description: Dynamic vapor sorption data and isothermal sorption data were collected on TA Instruments Q5000 TGA. Method: A sample of 1 to 10 mg was placed in a platinum pan; the weight change of the sample during the change in relative humidity from 0% to 80% to 0% was measured.

[2] = Thermogravimetric analysis (TGA), weight loss / residual solvents; type: physicochemical; details: before 150° C.
Description: Thermogravimetric analysis data were collected on TA instruments Q500 TGA. Method: A sample of 5 to 15 mg was placed in a platinum pan, using High Resolution™, the sample was heated from room temperature to 350° C. at a heating rate of 10° C./min under the protection of dry nitrogen purge at 40 mL/min.

Row | weight change (isothermal sorption plot) [1] [%] | weight loss (TGA) [2] [%] | SMILES
1 | 5.5 | 11.1 | CC#CC(=O)N1CCC[C@H]1c1nc(-c2ccc(C(=O)Nc3ccccn3)cc2)c2c(N)nccn12 [amorphous ACP-196]
2 | 0.8 | – | CC#CC(=O)N1CCC[C@H]1c1nc(-c2ccc(C(=O)Nc3ccccn3)cc2)c2c(N)nccn12 [ACP-196 Form 1]
